The target in assay [1] is T1, TIE2 intracellular domain/c-fms extracellular domain (TIE2/c-fms) chimeric protein (Homo sapiens, UniProt Q02763).
T1 construct: fused on or other part: c-fms (CSF1R) extracellular domain in place of TIE2's own ectodomain; it serves as the capture handle for the anti-c-fms ELISA; P07333 (Macrophage colony-stimulating factor 1 receptor)
Nature of the assay: TIE-2 Autophosphorylation Assay (TIE2-C). Type of assay: cell-based. The conditions noted are these: TIE2/c-fms expressing mouse 3T3 cells. The method, then: TIE-2 Autophosphorylation Assay (TIE2-C)
The TIE-2 autophosphorylation assay uses an ELISA method and a TIE2 intracellular domain/c-fms extracellular domain (TIE2/c-fms) chimeric protein expressing mouse 3T3 cell line. This assay measures the autophosphorylation level of TIE2 protein expressed in cells. The cells are cultured in 96 well plates and grown in high glucose DMEM containing 10% serum at 37° C. in a humidified 10% CO2, 90% air incubator. On the day of the assay, the serum containing medium is removed from the cells and replaced with serum free medium for one hour. The test compound (diluted from a 10 mM stock in DMSO, final DMSO concentration is 0.1%) is incubated with TIE2/c-fms expressing cells for 30 minutes in serum free DMEM. Intrinsic cellular dephosphorylation of the receptor is blocked by the addition of the tyrosine phosphatase inhibitor, sodium orthovanadate, from a 100 mM aqueous stock to a final concentration of 1 mM. The culture media is removed by aspiration and the cells incubated for 30 to 60 mins on ice with lysis buffer containing 137 mM NaCl, 2 mM EDTA, 10% glycerol, 1 mM sodium ortho vanadate, 1×tyrosine phosphatase inhibitor cocktail (Sigma) and complete protease inhibitor cocktail (Roche) in 20 mM Tris-HCl (pH8.0). The cell extracts are transferred into Rat anti-c-fms antibody (Zymed-clone 12-2d6) ([…]) coated 96 well plates and incubated for 12 hrs at 4 degrees. The extracts are removed by aspiration and the plate, washed in a buffer comprising PBS, 0.05% Tween-20, 0.05% NP-40 and 5% SuperBlock (Pierce) followed by incubation with an HRP (horseradish peroxidase) conjugated anti-phosphotyrosine antibody, (Upstate Biotech) The plates are again washed with the aforementioned wash buffer and the colorimetric HRP substrate, TMB is added. The reaction progresses for 90 seconds and is stopped with the addition of 2M H2SO4. The optical density at 450 nm derived from HRP catalyzed TMB is measured with a plate reader capable of reading at the appropriate wavelength (e.g. SpectroMax from Molecular Dynamics). The percent inhibition of activity is calculated relative to non-vanadate treated control wells. The concentration of test compound that inhibits 50% of activity (IC50) is interpolated using nonlinear regression (Levernberg-Marquardt) and the equation, y=Vmax (1−x/(K+x))+Y2, where “K” is equal to the IC50.

Assay [2] deals with T2, GST-TIE2 (intracellular domains of human TIE2) (Homo sapiens, UniProt Q02763).
T2 construct: made in house
Nature of the assay: TIE-2 Enzyme Assay (TIE2-E2), LANCE method. It counts as biochemical. The conditions noted are these: for pIC50: read-out: TIE2 PIC50 TIE2-E2 assay. Summed up: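 GST-tagged human TIE2 intracellular domain (aa 762–1104), preactivated 2 h with 80 μM ATP, then 5 nM enzyme run 2 h at room temperature with 1 μM biotinylated D1–15 peptide, 80 μM ATP, HEPES pH 7.4, 2.4% DMSO. Phosphotyrosine detected by LANCE (Eu anti-pTyr/streptavidin-APC) after EDTA stop; IC50 by nonlinear regression, reported as pIC50.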

A further assay deals with T3, GST-VEGFR2 (Homo sapiens, UniProt P35968).
T3 construct: GST-VEGFR2, baculovirus expressed recombinant constructs of the intracellular domains; made in house
Nature of the assay: VEGF-R2 Enzyme Assay (VEGF-E2), LANCE method. Type of assay: biochemical. Particulars: for pIC50: read-out: VEGFR2 PIC50 VEGFR-E2 assay.

Assay [3] has as its target T4, catalytic domain of human VEGFR3 (Homo sapiens, UniProt P35916, H890Q).
T4 construct: made in house; host or cells: Sf9 insect cells (baculovirus, pFastBac1)
Nature of the assay: VEGFR-3 Homogenous Time-Resolved Fluorescence Assay (VEGFR-3-HTRF). The conditions noted are these: for pIC50: read-out: VEGFR3 PIC50 VEGFR-3-HTRF assay. It counts as biochemical. From the text:
VEGFR—3-Homogenous Time-Resolved Fluorescence Assay (VEGFR-3-HTRF)
This assay assesses Vascular Endothelial Growth Factor 3 (VEGFR3) tyrosine kinase inhibitory activity in substrate phosphorylation assays. The assay examines the ability of small molecule organic compounds to inhibit the tyrosine phosphorylation of a peptide substrate.
The substrate phosphorylation assays use the VEGFR3 catalytic domain, which is expressed in Sf. 9 insect cells as an amino-terminal GST-tagged fusion protein. The catalytic domain of human VEGFR3 (AA residues #819–1298 based upon GenBank Accession #XM003852) is cloned by PCR from human Placenta Marathon Ready cDNA (Clontech). The PCR product is subcloned into pFastBac1 vector containing an N-terminal GST tag. The resulting pFB/GST/VEGFR3icd vector is used to generate a recombinant baculovirus for protein expression. The VEGFR3 catalytic domain translated sequence is:
Autophosphorylation allows enzymes to be fully activated prior to addition to peptide substrates. The assays are performed using enzyme that has been activated by autophosphorylation via preincubation in buffer with ATP and magnesium. Activated enzyme is then diluted and added to titrated compound and the substrate mix.
200 nM VEGFR3 enzyme is activated for 45 minutes at room temperature by incubating the enzyme in buffer containing 100 mM HEPES (pH7.2), 75 μM ATP, 0.3 mM DTT, 0.1 mg/mL BSA, and 10 mM MgCl2. After activation, VEGFR3 is diluted 100-fold into 2× dilution buffer: 200 mM HEPES (pH 7.5), 0.2 mg/mL BSA, 0.6 mM DTT. 20 μL of the diluted enzyme mix is added to 20 μL of 2× substrate mix (150 μM ATP, 20 mM MgCl2, 0.72 μM biotinylated peptide) in the assay plates. Final assay conditions are: 100 mM HEPES (pH 7.2), 75 μM ATP, 10 mM MgCl2, 0.1 mg/mL BSA, 0.3 mM DTT, 0.36 μM biotinylated peptide, and 1 nM VEGFR3 enzyme. Assay plates are incubated for 1.5 hours at room temperature before the addition of 30 μL 100 mM EDTA to the wells to stop the enzymatic reaction. 40 μL/well of HTRF mix are then added to the assay plates for the detection of phosphorylated substrate. Final assay concentrations are: 100 mM HEPES (pH7.2), 0.1 mg/mL BSA, 15 nM streptavidin-labeled allophycocyanin (PerkinElmer), and 1 nM europium-labeled anti-phosphotyrosine antibody (PerkinElmer). Assay plates are left unsealed and are counted in a Wallac Multilabel Counter 1420 (PerkinElmer).
The data for dose responses are plotted as % Control calculated with the data reduction formula 100*(U1–C2)/(C1–C2) versus concentration of compound where U is the unknown value, C1 is the average control value obtained for DMSO , and C2 is the average control value obtained for 0.1M EDTA. Data are fitted to the curve described by: y=((Vmax*x)/(K+x)) where Vmax is the upper asymptote and K is the IC50.

pIC50: −log10 of the molar value.

T4 sequence (P35916 with tags, fused parts or gaps isoform P35916-1 H890Q): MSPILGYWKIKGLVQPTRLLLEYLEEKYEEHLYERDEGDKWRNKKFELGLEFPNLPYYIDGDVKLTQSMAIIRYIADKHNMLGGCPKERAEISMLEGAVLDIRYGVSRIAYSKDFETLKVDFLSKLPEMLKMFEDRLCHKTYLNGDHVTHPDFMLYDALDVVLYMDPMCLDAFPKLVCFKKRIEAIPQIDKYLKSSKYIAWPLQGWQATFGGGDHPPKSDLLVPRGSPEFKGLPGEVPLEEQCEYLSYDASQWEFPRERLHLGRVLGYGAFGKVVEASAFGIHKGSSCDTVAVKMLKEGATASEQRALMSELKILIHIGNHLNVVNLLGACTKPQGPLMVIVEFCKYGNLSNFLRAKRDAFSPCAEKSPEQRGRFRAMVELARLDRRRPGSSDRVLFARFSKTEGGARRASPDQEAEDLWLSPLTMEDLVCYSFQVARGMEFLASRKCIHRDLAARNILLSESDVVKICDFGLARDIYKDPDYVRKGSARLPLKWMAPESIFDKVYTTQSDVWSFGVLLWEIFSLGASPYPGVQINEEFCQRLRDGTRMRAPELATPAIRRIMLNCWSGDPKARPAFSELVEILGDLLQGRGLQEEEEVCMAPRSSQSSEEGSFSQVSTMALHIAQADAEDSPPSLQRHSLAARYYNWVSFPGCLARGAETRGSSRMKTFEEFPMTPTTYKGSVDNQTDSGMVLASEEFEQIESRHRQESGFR
T1 sequence (Q02763 whole entry, change not shown, the tested form may be a part): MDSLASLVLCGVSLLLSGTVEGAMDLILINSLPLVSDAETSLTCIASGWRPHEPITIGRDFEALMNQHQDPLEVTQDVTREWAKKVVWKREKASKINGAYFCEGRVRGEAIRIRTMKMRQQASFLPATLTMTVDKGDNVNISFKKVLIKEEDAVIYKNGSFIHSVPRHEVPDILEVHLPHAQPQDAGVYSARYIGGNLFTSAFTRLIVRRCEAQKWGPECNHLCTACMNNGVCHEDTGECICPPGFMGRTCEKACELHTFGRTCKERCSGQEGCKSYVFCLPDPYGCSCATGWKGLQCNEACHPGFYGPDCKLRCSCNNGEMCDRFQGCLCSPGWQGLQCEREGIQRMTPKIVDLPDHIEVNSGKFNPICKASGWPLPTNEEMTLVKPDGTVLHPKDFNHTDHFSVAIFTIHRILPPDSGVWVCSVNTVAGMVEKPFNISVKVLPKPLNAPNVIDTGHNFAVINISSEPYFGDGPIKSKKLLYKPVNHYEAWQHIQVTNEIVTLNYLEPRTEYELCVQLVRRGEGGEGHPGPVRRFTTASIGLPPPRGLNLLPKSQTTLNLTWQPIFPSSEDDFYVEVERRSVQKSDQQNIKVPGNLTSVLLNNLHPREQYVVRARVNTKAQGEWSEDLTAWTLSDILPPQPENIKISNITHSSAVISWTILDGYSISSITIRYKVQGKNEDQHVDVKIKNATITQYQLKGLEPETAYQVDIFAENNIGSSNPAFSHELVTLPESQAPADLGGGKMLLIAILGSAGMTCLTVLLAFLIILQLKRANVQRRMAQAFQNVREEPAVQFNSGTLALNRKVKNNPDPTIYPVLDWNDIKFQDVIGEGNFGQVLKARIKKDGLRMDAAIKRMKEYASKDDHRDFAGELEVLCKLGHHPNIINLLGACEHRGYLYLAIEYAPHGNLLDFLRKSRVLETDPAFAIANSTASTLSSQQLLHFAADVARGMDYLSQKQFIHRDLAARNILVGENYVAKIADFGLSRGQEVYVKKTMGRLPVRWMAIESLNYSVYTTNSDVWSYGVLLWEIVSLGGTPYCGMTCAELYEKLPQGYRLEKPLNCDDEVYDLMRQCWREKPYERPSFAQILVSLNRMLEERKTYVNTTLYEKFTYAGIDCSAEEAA
T3 sequence (P35968 786-1356 limits assumed): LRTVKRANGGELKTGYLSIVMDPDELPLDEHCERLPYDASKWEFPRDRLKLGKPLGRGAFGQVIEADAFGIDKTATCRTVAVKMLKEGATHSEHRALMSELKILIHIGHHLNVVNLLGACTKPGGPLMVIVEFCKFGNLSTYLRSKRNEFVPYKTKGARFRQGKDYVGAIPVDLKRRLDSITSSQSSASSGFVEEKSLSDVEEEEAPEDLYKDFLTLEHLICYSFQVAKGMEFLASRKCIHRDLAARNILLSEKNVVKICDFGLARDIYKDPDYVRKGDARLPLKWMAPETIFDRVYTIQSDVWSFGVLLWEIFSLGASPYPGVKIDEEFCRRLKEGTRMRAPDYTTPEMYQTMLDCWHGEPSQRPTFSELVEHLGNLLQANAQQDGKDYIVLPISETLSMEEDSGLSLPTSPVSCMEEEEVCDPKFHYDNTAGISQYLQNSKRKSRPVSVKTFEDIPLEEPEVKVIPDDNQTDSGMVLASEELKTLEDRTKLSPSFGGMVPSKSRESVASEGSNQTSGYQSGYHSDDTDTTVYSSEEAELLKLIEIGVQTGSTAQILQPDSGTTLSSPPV
T2 sequence (Q02763 762-1104): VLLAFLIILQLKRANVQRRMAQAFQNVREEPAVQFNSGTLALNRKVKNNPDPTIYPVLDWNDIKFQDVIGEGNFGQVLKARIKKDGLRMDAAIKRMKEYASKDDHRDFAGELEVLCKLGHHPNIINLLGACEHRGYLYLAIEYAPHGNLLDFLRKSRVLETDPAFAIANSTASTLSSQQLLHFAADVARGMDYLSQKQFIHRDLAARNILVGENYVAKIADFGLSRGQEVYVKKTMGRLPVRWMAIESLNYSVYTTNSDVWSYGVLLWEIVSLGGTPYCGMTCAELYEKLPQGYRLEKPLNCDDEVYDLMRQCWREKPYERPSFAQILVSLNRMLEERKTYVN

As for `CN1CCN(CCCNc2ncc3c(-c4ccc(NC(=O)Nc5cc(C(C)(C)C)on5)c(F)c4)nn(C)c3n2)CC1` [Example 138], the values for the pIC50 in assay [1] and in assay [2] were 6.52 to 7.00 and at least 7.40, respectively.
For `CN1CCCC1CCNc1ncc2c(-c3ccc(NC(=O)Nc4cc(C(F)(F)F)ccc4F)cc3)nn(C)c2n1` (stereo not drawn) [Example 89, 1-(2-Fluoro-5-trifluoromethyl-phenyl)-3-{4-[1-methyl-6-[2-(1-methyl-pyrrolidin-2-yl)-ethylamino]-1H-pyrazolo[3,4-d]pyrimidin-3-yl]-phenyl} urea], the values for the pIC50 in assay [1] and in assay [2] were at most 6.52 and at least 7.40, respectively.
In the case of `CCN(CC)CCCNc1ncc2c(-c3ccc(NC(=O)Nc4cc(C(F)(F)F)ccc4F)cc3)nn(C)c2n1` [Example 88, 1-(2-Fluoro-5-trifluoromethyl-phenyl)-3-{4-[1-methyl-6-(3-diethylamino-propylamino)-1H-pyrazolo[3,4-d]pyrimidin-3-yl]-phenyl} urea], the pIC50 in assay [1] was at most 6.52; in assay [2], at least 7.40.
The like results for `CCN(CC)CCCNc1ncc2c(-c3ccc(NC(=O)Nc4cc(C(C)(C)C)on4)c(F)c3)nn(C)c2n1` [Example 136] were, in that order, at most 6.52 and at least 7.40.
With `Cn1nc(-c2ccc(NC(=O)Nc3cc(C(F)(F)F)ccc3F)c(F)c2)c2cnc(NCCN3CCOCC3)nc21` [Example 49], the results for the pIC50 (on GST-VEGFR2; in assay [3]; in assay [2]) were 5.00 to 6.00, 5.00 to 6.00 and at least 7.40, respectively.
In the case of `Cn1nc(-c2ccc(NS(=O)(=O)c3cccc(Cl)c3Cl)cc2)c2cnc(NCCCN3CCCC3=O)nc21` [Example 67], the pIC50 (on GST-VEGFR2; in assay [3]; in assay [2]) was 5.00 to 6.00 in each case.
With `CC1CCCCN1CCCNc1ncc2c(-c3ccc(NC(=O)Nc4cc(C(C)(C)C)on4)c(F)c3)nn(C)c2n1` (stereo not drawn) [Example 135], the pIC50 is at most 6.52 in assay [1] and at least 7.40 in assay [2].
In the case of `Cn1nc(-c2ccc(NC(=O)Nc3cc(C(F)(F)F)ccc3F)cc2)c2cnc(NCCCCNS(C)(=O)=O)nc21` [Example 97, N-[4-(3-{4-[3-(2-Fluoro-5-trifluoromethyl-phenyl)-ureido]-phenyl} -1-methyl-1H-pyrazolo[3,4-d]pyrimidin-6-ylamino)-butyl]-methanesulfonamide], the results for the pIC50 (on GST-VEGFR2; in assay [3]; in assay [2]) were below 5.00, 5.00 to 6.00 and 7.00 to 7.40, respectively.
As to `Cn1nc(-c2ccc(NS(=O)(=O)c3cccc(Cl)c3Cl)cc2)c2cnc(NCCCCNS(C)(=O)=O)nc21` [Example 122, 2,3-Dichloro-N-{4-[1-methyl-6-(4-methanesulfonylamino-butylamino)-1H-pyrazolo[3,4-d]pyrimidin-3-yl]-phenyl}-benzenesulfonamide], the pIC50 at GST-VEGFR2 is below 5.00; in assay [3] it was 5.00 to 6.00; in assay [2], 5.00 to 6.00.
On to `CN1CCCC1CCNc1ncc2c(-c3ccc(NC(=O)Nc4cc(C(C)(C)C)on4)c(F)c3)nn(C)c2n1` (stereo not drawn) [Example 137], for which the pIC50 in assay [1] was at most 6.52; in assay [2], at least 7.40.
On to “1-(2-fluoro-5-trifluoromethyl-phenyl)-3-(4-{methyl-6-(2-oxopyrrolidin-2-yl)-1H-pyrazolo[3,4-d]pyrimidin-3-yl}-phenyl)-urea [Example 61]”, for which the “VEGFR2 PIC50 VEGFR-E2 assay” value on GST-VEGFR2 is “++ (++ = PIC50 = 6.00 to less than 7.00)”. In assay [3], the “VEGFR3 PIC50 VEGFR-3-HTRF assay” value is given as “+ (+ = PIC50 = 5.00 to less than 6.00)”. For the same molecule, in assay [2], the “TIE2 PIC50 TIE2-E2 assay” value was “+++ (+++ = PIC50 = 7.00 to less than 7.40)”.
As to `Cn1nc(-c2ccc(NC(=O)Nc3cc(C(C)(C)C)on3)cc2)c2cnc(NCCN3CCOCC3)nc21` [Example 35], the pIC50 was 5.00 to 6.00 on GST-VEGFR2, 6.00 to 7.00 in assay [3] and 7.00 to 7.40 in assay [2].
With `CC(=O)Nc1ncc2c(-c3ccc(NS(=O)(=O)c4cccc(Cl)c4Cl)cc3)nn(C)c2n1` [Example 71], the pIC50 on GST-VEGFR2 was 5.00 to 6.00; in assay [3], 6.00 to 7.00; in assay [2], 5.00 to 6.00.
As to “2,5-Dichloro-{4-{1-methyl-6-[3-(4-methyl-piperazin-1yl) -propylamino]-1H-pyrazolo[3,4-d]pyrimidin-3-yl}-phenyl}-thiophene-3-sulfonamide [Example 66]”, the “VEGFR2 PIC50 VEGFR-E2 assay” value on GST-VEGFR2 is “−− (−− = PIC50 less than 5.00)”. Also, in assay [3], the “VEGFR3 PIC50 VEGFR-3-HTRF assay” value was “−− (−− = PIC50 less than 5.00)”. For the same molecule, the “TIE2 PIC50 TIE2-E2 assay” value in assay [2] is “+++ (+++ = PIC50 = 7.00 to less than 7.40)”.
On to `Cn1nc(-c2ccc(NC(=O)Nc3cc(C(F)(F)F)ccc3F)c(F)c2)c2cnc(NCCCn3ccnc3)nc21` [Example 132, 1-(2-Fluoro-5-trifluoromethyl-phenyl)-3-{2-fluoro-4-[1-methyl-6-(3-(imidazol-1-ylpropylamino)-1H-pyrazolo[3,4-d]pyrimidin-3-yl)-phenyl]} urea], for which the pIC50 at GST-VEGFR2 was 5.00 to 6.00; in assay [3], 5.00 to 6.00; in assay [2] it was at least 7.40.
Regarding `Cn1nc(-c2ccc(NS(=O)(=O)c3cccc(Cl)c3Cl)cc2)c2cnc(NCCCCO)nc21` [Example 113, 2,3-Dichloro-N-{4-[1-methyl-6-(4-hydroxy-butylamino)-1H-pyrazolo[3,4-d]pyrimidin-3-yl]-phenyl}-benzenesulfonamide], the pIC50 (on GST-VEGFR2; in assay [3]; in assay [2]) was 5.00 to 6.00 in each case.
Regarding `Cn1nc(-c2ccc(NC(=O)Nc3ccc4ccccc4c3)cc2)c2cnc(NCCN3CCOCC3)nc21` [Example 39, 1-{4-[1-Methyl-6-(2-morpholin-4-yl-ethylamino)-1H-pyrazolo[3,4-d]pyrimidin-3-y]-phenyl}-3-naphthalen-2-yl-urea], the pIC50 on GST-VEGFR2 is 5.00 to 6.00; in assay [3], 5.00 to 6.00; in assay [2], 6.00 to 7.00.

(Values after patent publication US7217710B2, “Substituted pyrazolopyrimidines” (SmithKline Beecham Corporation, priority 2001, dated 2007).)
